The source of these data is patent US12565481B2, “6,7-dimethoxy-3-(pyridin-2-yl)quinoline compounds for inhibiting RET” (Guangzhou Baiyunshan Pharmaceutical Holdings Co., Ltd. …, priority 2020, dated 2026).

The nature of the series: Pharmacokinetics study of mice. It counts as in vivo. To be noted: mouse, plasma; male CD-1 mice, 2.5 mpk oral administration vs 0.5 mpk intravenous injection. The source says:
The purpose of this experiment was to study the pharmacokinetics of the test compound in the plasma of male CD-1 mice after intravenous injection and oral administration.
The animals were randomly divided into two groups with 2 males in each group. The compounds were formulated into prescribed preparations. Intravenous formulations were formulated with 5% DMSO/95% (6% hydroxypropyl-β-cyclodextrin) to give a clear solution, and oral preparations were formulated with 0.1% Tween80/0.5% HPMC aqueous solution to give a homogeneous suspension.
Whole blood samples were collected from the saphenous vein of the animals 5 minutes, 15 minutes, 30 minutes, 1 hour, 2 hours, 4 hours, 8 hours, 12 hours, and 24 hours after administration. The whole blood sample was added to the centrifuge tube containing anticoagulant, and centrifuged at 3200 g for 10 minutes at 4° C. The supernatant of plasma was taken, frozen quickly on dry ice, and then stored in a −70±10° C. refrigerator until LC-MS/MS analysis.
WinNonlin™ Version 6.3.0 (Pharsight, Mountain View, Calif.) pharmacokinetic software was used to process the plasma drug concentration data of the compounds with a non-compartmental model. The peak concentration (Cmax), peak time (Tmax) and quantifiable end time were obtained directly from the blood drug concentration-time profile. […]

For the compound `CCN1CCN(Cc2cc(F)c(NC(=O)Cc3ccc(-c4cnc5cc(OC)c(OC)cc5c4)nc3)cc2C(F)(F)F)CC1` [Compound 1], the bioavailability (commonly dose-corrected exposure relative to a reference, in per cent) came out at 48.9%.
